# Results taken from patent US9345716B2, “Protein free surfactant composition for pulmonary diseases and a process for preparing the same” (INDIAN INSTITUTE OF TECHNOLOGY, BOMBAY, priority 2010, dated 2016).
# Where “and” joins values, the source holds several entries; their conditions need not be identical. Equal values may be shown once.
# Legend:
# [1] = Surfactant adsorption to air-liquid interface in a langmuir trough; type: physicochemical
# Procedure: Salbutamol or dexamethasone were added in a ratio of 1 part of surfactant to 0.1 parts of drug while gentamycin was added in a ratio of 1 part of surfactant to 0.2 parts of drug by weight.
# [2] = Laurdan fluorescence ratio (lamellar/non-lamellar phase state); type: physicochemical; details: for Ratio of Laurdan fluorescence 360/390: 360 and 390 nm; for Ratio of Laurdan fluorescence 360/490: 360 and 490 nm
# From the text: (§1) Laurdan (6-dodecanoyl-2-dimethylaminonaphthalene) is a fluorescent membrane probe that has the advantage of displaying spectral sensitivity to the phospholipids phase state.
# as §1
# [3] = Atomic force microscopy of surfactant films in presence of albumin; type: physicochemical; details: in the presence of albumin
# From the text: The invented surfactant of DPPC: eugenol 5:3 forms closely packed structures having nanodomains in the presence of albumin. The DPPC: eugenol surfactant in the absence and presence of albumin was compared with that of DPPC alone in the absence and presence of albumin, using atomic force microscopy (AFM). AFM images of DPPC in the presence of albumin and DPPC: eugenol 5:3 in the presence of albumin are depicted in FIGS. 11 and 13 respectively and the roughness of the structures are depicted in FIGS. 12 and 14. […] The surface roughness of DPPC in the presence of albumin is depicted in FIG. 12. It confirms large aggregates with roughness of 47.47 nm. On the other hand, in the case of DPPC: eugenol in the presence of albumin, the surface roughness is only 8.9 nm as depicted in FIG. 14. The formation of nanodomains of 80-90 nm with surface roughness of 8.9 nm allows a closely packed organization which accounts for the improved surface activity of the surfactant in the presence of albumin.
# [4] = Differential scanning calorimetry: energy required by liposomes to reach the interface; type: physicochemical; details: liposomes 1 mg/ml
# Procedure: Differential scanning calorimetry (DSC) was also used to study the interaction of bioactive compounds with model lipid bilayers such as DPPC. The experiments were performed at temperature ranging from 35° C. to 115° C. The rate of heating was 3° C./min and the system was allowed to cool to about 35° C. before the next experiment. The samples studied in the order of DSC results were,
# Differential scanning calorimetry (DSC) was used to study the interaction of bioactive compounds with model lipid bilayers such as DPPC. The experiments were performed at temperature ranging from 35° C. to 115° C. The rate of heating was 3° C./min and the system was allowed to cool to about 35° C. before the next experiment. […] The lower the energy required by the nanovesicles, better is the rate of adsorption. […] On addition of HCl (as an acid inhibitor), there was an increase in the energy (1743 J/g) of the DPPC liposomes which affected the adsorption (59.89±2.22mN/m) of these acid-treated liposomes. The energy barrier prevented the rapid entry of these liposomes at the interface thereby affecting adsorption.
# [5] = Airway patency in a capillary surfactometer; details: 37 C, graded concentrations of albumin
# Procedure: This is evaluated in a capillary surfactometer at 37 C at a concentration of 1 mg/ml of the surfactant in the presence of 0.5 mg/ml of albumin.
# FIG. 2 compares the airway patency of DPPC:Eugenol 5:3 (present invention) at a concentration of 1 mg/ml with that of DPPC:clove oil 5:3 1 mg/ml in the absence and presence of 0.5 mg/ml of albumin in a capillary surfactometer at 37 C.
SMILES,"Adsorption (rate of adsorption, surface tension) ([1]; acid-treated, HCl 3.1×10^−1 moles/dm^3) [mN/m]","Adsorption (rate of adsorption, surface tension) ([1]; acid-untreated, liposomes 1 mg/ml) [mN/m]",Ratio of Laurdan fluorescence 360/390 ([2]; in the presence of albumin),Ratio of Laurdan fluorescence 360/390 ([2]; no albumin),Ratio of Laurdan fluorescence 360/490 ([2]; in the presence of albumin),Ratio of Laurdan fluorescence 360/490 ([2]; no albumin),Domain size (AFM) [3],Surface roughness (AFM) [3] [nm],Energy required for the liposomes to reach the interface (DSC) ([4]; HCl 3.1×10^−1 moles/dm^3) [J/g],Energy required for the liposomes to reach the interface (DSC) ([4]; acid-untreated) [J/g],Airway patency in presence of graded amounts of albumin [5] [%]
"CCCCCCCCCCCCCCCC(=O)OC[C@H](COP(=O)([O-])OCC[N+](C)(C)C)OC(=O)CCCCCCCCCCCCCCC [DPPC, dipalmitoylphosphatidylcholine]",59.89±2.22,44.66±1.71,1.98 and 1.99,2.6 and 2.615,1.21 and 1.215,2.41,540-550 nm,47.47,1743,1325,0
C=CCc1ccc(O)c(OC)c1 [eugenol],,,,,,,,,,,0
